Results: patent publication US6552014B2, “Methods of inhibiting platelet activation with selective serotonin reuptake inhibitors” (HeartDrug Research, L.L.C., priority 1999, dated 2003)

Experiments:
Experiment in all cases: Flow cytometry of platelet antigen expression, platelet rich plasma
Type in all cases: cell-based, human
[1] = test system: GP IIb; conditions: PRP
Text: (§1) For ex vivo assessment of the SSRIs effect on a PAM, a level of a PAM can be assessed by flow cytometry by first obtaining a sample that comprises platelets and then contacting the sample with a platelet activation agonist, such as phorbol myristate acetate (PMA), ADP (adenosine diphosphate), thrombin, collagen, and/or TRAP (thrombin receptor activating peptide), under conditions suitable for activation of platelets in the sample. The sample is in contact with the agonist preferably for a period of time effective to maximally activate the platelets. […] NDMS at 31.1, 64.1 or 143 ng./ml). Then one contacts or stains the samples with a composition that comprises an anti-PAM antibody e.g., having a fluorescent label, preferably in an amount in excess of that required to bind the PAM expressed on the platelets, under conditions suitable for the formation of labeled complexes between the anti-PAM antibody and activated platelets. Then the formation of the complex in the sample is determined (detected or measured). […] The blood-ACD mixture was centrifuged at 1000 r.p.m. for 10 minutes at room temperature. […] The PRP was then centrifuged at 3000 r.p.m. for 10 minutes. […] All cells were then divided into ten plastic capped tubes. Nine portions of washed platelets were incubated with 5 μfluorescein isothiocyanate (FITC)-conjugated antibodies in the dark at +4 °C for 30 minutes, and one part remained unstained and served as a negative control. Surface antigen expression was measured with monoclonal murine anti-human antibodies: CD9 (p24); CD41a (IIb/IIIa, aIIIbb3); CD42b (Ib); CD61(IIIa) (DAKO Corporation, Carpinteria Calif.); CD49b (VLA-2, or a2b1); CD62p (P-selectin); CD31 (PECAM-1); […] The instrument was calibrated daily with fluorescence beads (CaliBRITE; Becton Dickinson) and measured FITC-conjugated fluorescence intensity. All parameters were obtained using four decade logarithmic amplification. The data was collected and stored in list mode, and then analyzed using CELLQuest® (version 1.2.2) software. Procedures are described in detail in (Gurbel, P. […] Serebruany, V. […] Gurbel, P. A. et al., Coron Artery Dis 9: 451-456 (1998) and Serebruany, V. L. et al., Arterioscl Thromb Vasc Biol 19: 153-158 (1999)). The data in table 1 was obtained using the methods described herein, and in particular, in Examples 1 and 2. The levels of various PAMs were assess from samples of human volunteers.

[2] = test system: GP Ib; conditions: for GP Ib (mean) log fluorescence intensity / GP Ib (peak) log fluorescence intensity: PRP
Text: as §1

[3] = test system: PECAM-1; conditions: for PECAM-1 (mean) log fluorescence intensity / PECAM-1 (peak) log fluorescence intensity: PRP
Text: as §1

[4] = test system: CD9; conditions: for CD9 (mean) log fluorescence intensity / CD9 (peak) log fluorescence intensity: PRP
Text: as §1

[5] = test system: GP IIIa; conditions: PRP
Text: as §1

[6] = healthy volunteers, desmethylsertraline 31.1 ng/ml
[7] = healthy volunteers, desmethylsertraline 64.2 ng/ml
[8] = healthy volunteers, desmethylsertraline 143 ng/ml
[9] = post-angioplasty patient on aspirin, desmethylsertraline 31.1 ng/ml
[10] = post-angioplasty patient on aspirin, desmethylsertraline 64.2 ng/ml
[11] = post-angioplasty patient on aspirin, desmethylsertraline 143 ng/ml
[12] = healthy volunteers, sertraline 18.1 ng/ml
[13] = healthy volunteers, sertraline 44.7 ng/ml
[14] = healthy volunteers, sertraline 85.3 ng/ml
[15] = post-angioplasty patient on aspirin, sertraline 18.1 ng/ml
[16] = post-angioplasty patient on aspirin, sertraline 44.7 ng/ml
[17] = post-angioplasty patient on aspirin, sertraline 85.3 ng/ml
[18] = plasma concentration 85.3 ng/ml, equivalent to 200 mg/daily

SMILES: N[C@H]1CC[C@@H](c2ccc(Cl)c(Cl)c2)c2ccccc21 [Desmethyl sertraline, N-desmethylsertraline]
- GP IIb (mean) log fluorescence intensity [1, 6]: 33
- GP IIb (peak) log fluorescence intensity [1, 6]: 31
- GP IIb (peak) log fluorescence intensity [1, 7]: 31
- GP IIb (mean) log fluorescence intensity [1, 8]: 30
- GP IIb (peak) log fluorescence intensity [1, 8]: 35
- GP IIb (mean) log fluorescence intensity [1, 9]: 24
- GP IIb (peak) log fluorescence intensity [1, 9]: 21
- GP IIb (mean) log fluorescence intensity [1, 10]: 22
- GP IIb (mean) log fluorescence intensity [1, 11]: 29
- GP IIb (peak) log fluorescence intensity [1, 11]: 25
- GP Ib (mean) log fluorescence intensity [2, 6]: 146
- GP Ib (peak) log fluorescence intensity [2, 6]: 94
- GP Ib (mean) log fluorescence intensity [2, 7]: 299
- GP Ib (peak) log fluorescence intensity [2, 7]: 266
- GP Ib (mean) log fluorescence intensity [2, 8]: 309
- GP Ib (peak) log fluorescence intensity [2, 8]: 336
- GP Ib (mean) log fluorescence intensity [2, 9]: 167
- GP Ib (peak) log fluorescence intensity [2, 9]: 165
- GP Ib (mean) log fluorescence intensity [2, 10]: 198
- GP Ib (peak) log fluorescence intensity [2, 10]: 167
- GP Ib (mean) log fluorescence intensity [2, 11]: 222
- GP Ib (peak) log fluorescence intensity [2, 11]: 201
- PECAM-1 (mean) log fluorescence intensity [3, 6]: 74
- PECAM-1 (peak) log fluorescence intensity [3, 6]: 60
- PECAM-1 (mean) log fluorescence intensity [3, 7]: 101
- PECAM-1 (mean) log fluorescence intensity [3, 8]: 81
- PECAM-1 (peak) log fluorescence intensity [3, 8]: 74
- PECAM-1 (mean) log fluorescence intensity [3, 9]: 94
- PECAM-1 (peak) log fluorescence intensity [3, 9]: 83
- PECAM-1 (mean) log fluorescence intensity [3, 11]: 90
- PECAM-1 (peak) log fluorescence intensity [3, 11]: 84
- CD9 (mean) log fluorescence intensity [4, 6]: 728
- CD9 (peak) log fluorescence intensity [4, 6]: 620
- CD9 (peak) log fluorescence intensity [4, 7]: 805
- CD9 (mean) log fluorescence intensity [4, 8]: 837
- CD9 (peak) log fluorescence intensity [4, 8]: 770
- CD9 (mean) log fluorescence intensity [4, 9]: 908
- CD9 (peak) log fluorescence intensity [4, 9]: 1046
- CD9 (mean) log fluorescence intensity [4, 10]: 927
- CD9 (peak) log fluorescence intensity [4, 10]: 930
- CD9 (mean) log fluorescence intensity [4, 11]: 853
- CD9 (peak) log fluorescence intensity [4, 11]: 850
- GP IIIa (mean) log fluorescence intensity [5, 6]: 981
- GP IIIa (peak) log fluorescence intensity [5, 6]: 913
- GP IIIa (mean) log fluorescence intensity [5, 7]: 1178
- GP IIIa (mean) log fluorescence intensity [5, 8]: 1182
- GP IIIa (peak) log fluorescence intensity [5, 8]: 1046
- GP IIIa (mean) log fluorescence intensity [5, 9]: 1235
- GP IIIa (peak) log fluorescence intensity [5, 9]: 1298
- GP IIIa (peak) log fluorescence intensity [5, 10]: 1144
- GP IIIa (mean) log fluorescence intensity [5, 11]: 1259
- GP IIIa (peak) log fluorescence intensity [5, 11]: 1219

SMILES: CN[C@H]1CC[C@@H](c2ccc(Cl)c(Cl)c2)c2ccccc21 [sertraline]
- GP IIb (mean) log fluorescence intensity [1, 12]: 31
- GP IIb (peak) log fluorescence intensity [1, 12]: 26
- GP IIb (mean) log fluorescence intensity [1, 13]: 31
- GP IIb (peak) log fluorescence intensity [1, 13]: 35
- GP IIb (mean) log fluorescence intensity [1, 14]: 30
- GP IIb (peak) log fluorescence intensity [1, 14]: 22
- GP IIb (mean) log fluorescence intensity [1, 15]: 30
- GP IIb (peak) log fluorescence intensity [1, 15]: 29
- GP IIb (mean) log fluorescence intensity [1, 16]: 27
- GP IIb (peak) log fluorescence intensity [1, 16]: 31
- GP IIb (mean) log fluorescence intensity [1, 17]: 37
- GP IIb (peak) log fluorescence intensity [1, 17]: 34
- GPIb expression, flow cytometric graph (FIG. 8), in words ([2]; 18.1, 44.7 or 85.5 ng/mL of sertraline): dose dependent decrease in the expression
- GP Ib (mean) log fluorescence intensity [2, 12]: 139
- GP Ib (peak) log fluorescence intensity [2, 12]: 125
- GP Ib (mean) log fluorescence intensity [2, 13]: 97
- GP Ib (peak) log fluorescence intensity [2, 13]: 74
- GP Ib (mean) log fluorescence intensity [2, 14]: 65
- GP Ib (peak) log fluorescence intensity [2, 14]: 67
- GP Ib (mean) log fluorescence intensity [2, 15]: 324
- GP Ib (peak) log fluorescence intensity [2, 15]: 305
- GP Ib (mean) log fluorescence intensity [2, 16]: 220
- GP Ib (peak) log fluorescence intensity [2, 16]: 257
- GP Ib (mean) log fluorescence intensity [2, 17]: 182
- GP Ib (peak) log fluorescence intensity [2, 17]: 186
- surface expression of GPIb, in words [2, 18]: diminished surface expression
- PECAM-1 expression, flow cytometric graph (FIG. 10), in words ([3]; 44.7, 85.3 ng/mL of sertraline): dose dependent decrease in the expression
- PECAM-1 (mean) log fluorescence intensity [3, 12]: 117
- PECAM-1 (peak) log fluorescence intensity [3, 12]: 88
- PECAM-1 (mean) log fluorescence intensity [3, 13]: 104
- PECAM-1 (peak) log fluorescence intensity [3, 13]: 71
- PECAM-1 (mean) log fluorescence intensity [3, 14]: 84
- PECAM-1 (peak) log fluorescence intensity [3, 14]: 66
- PECAM-1 (mean) log fluorescence intensity [3, 15]: 94
- PECAM-1 (peak) log fluorescence intensity [3, 15]: 76
- PECAM-1 (mean) log fluorescence intensity [3, 16]: 99
- PECAM-1 (peak) log fluorescence intensity [3, 16]: 98
- PECAM-1 (mean) log fluorescence intensity [3, 17]: 97
- PECAM-1 (peak) log fluorescence intensity [3, 17]: 93
- surface expression of PECAM-1, in words [3, 18]: diminished surface expression
- CD9 (mean) log fluorescence intensity [4, 12]: 948
- CD9 (peak) log fluorescence intensity [4, 12]: 938
- CD9 (mean) log fluorescence intensity [4, 13]: 905
- CD9 (peak) log fluorescence intensity [4, 13]: 777
- CD9 (mean) log fluorescence intensity [4, 14]: 742
- CD9 (peak) log fluorescence intensity [4, 14]: 716
- CD9 (mean) log fluorescence intensity [4, 15]: 949
- CD9 (peak) log fluorescence intensity [4, 15]: 1027
- CD9 (mean) log fluorescence intensity [4, 16]: 1015
- CD9 (peak) log fluorescence intensity [4, 16]: 850
- CD9 (mean) log fluorescence intensity [4, 17]: 984
- CD9 (peak) log fluorescence intensity [4, 17]: 964
- surface expression of CD9 (p24), in words [4, 18]: diminished surface expression
- GP IIIa (mean) log fluorescence intensity [5, 12]: 1389
- GP IIIa (peak) log fluorescence intensity [5, 12]: 1197
- GP IIIa (mean) log fluorescence intensity [5, 13]: 1197
- GP IIIa (peak) log fluorescence intensity [5, 13]: 1084
- GP IIIa (mean) log fluorescence intensity [5, 14]: 816
- GP IIIa (peak) log fluorescence intensity [5, 14]: 704
- GP IIIa (mean) log fluorescence intensity [5, 15]: 1247
- GP IIIa (peak) log fluorescence intensity [5, 15]: 1114
- GP IIIa (mean) log fluorescence intensity [5, 16]: 1404
- GP IIIa (peak) log fluorescence intensity [5, 16]: 1370
- GP IIIa (mean) log fluorescence intensity [5, 17]: 1321
- GP IIIa (peak) log fluorescence intensity [5, 17]: 1310
